Assay results taken from patent publication US20080305059A1, “Skin lightening compositions and methods” (priority 2007, published 2008).

What was measured:
[1] = test system: skin color of forearm test sites; experiment: Skin lightening efficacy on forearms, chromometric measurement of L value and ITA degree; format: in vivo, human; conditions: for ΔITA Degrees / ΔL Value: applied twice a day to forearm, 15 individuals, delta = percent change from baseline; for ΔITA Degrees / ΔL Value / adverse effects: 0.5% hexylresorcinol or 2% hydroquinone composition; for adverse effects: twice a day for eight weeks on forearms
Description: The composition was prepared by mixing the components of Phase A-1 until a substantially homogenous mixture was obtained and then dispersing that mixture in Phase A-2 with moderate agitation. The mixture was mixed until a homogeneous clear dispersion was obtained. Then, the components of Phase B were combined, mixed and heated to 75° C. and then added to the Phase A-1/A-2 mixture. The so formed mixture was homogenized for 2-3 minutes to obtain a substantially uniform composition. Phase C was added and mixed until uniform. After cooling down to 50° C., Phases D, E and F in the listed order were added and mixed and the final composition then cooled down to room temperature. […] A second skin lightening composition was prepared in the same manner with the same formulation except that the highly purified hexylresorcinol was replaced with 2% hydroquinone (Eastman) and water adjusted accordingly. Each of the skin lightening compositions was applied to different test sites on the forearms of fifteen individuals. The compositions were applied twice a day, morning and evening, for eight weeks. The test sites as well as untreated sites on each forearm were evaluated by a trained clinical evaluator for brightness of skin, evenness of skin tone, appearance of skin, dryness of skin and radiance of skin using a 10 point scale prior to the first application and following Week 4 and Week 8. Each test site was evaluated for skin color change as represented by the change in L values and ITA.degree (Individual Topology Angle—COLIPA SPF test method) as measured by chromometric measurement. ITA° was calculated using the formula: ITA°=[Arc Tangent(L*−50)/b*)]180/3.1416 Wherein, L*value—lightness and b*—color in blue-yellow axis. The results of the testing were as presented in Table 3, wherein the delta represents the percent change in skin color from the baseline coloration of the untreated skin.

[2] = test system: skin of the infrascapular regions of the back; experiment: Skin sensitivity: repeat occlusive patch test (nine inductive patchings plus challenge); format: in vivo, human; conditions: 5% dilution in corn oil, 111 subjects
Description: Given the known sensitivity issues associated with commercial grade hexylresorcinol, evaluation of the skin sensitivity to the purified hexylresorcinol was also evaluated. Skin sensitivity was evaluated following the method cited in the reference Appraisal of the Safety of Chemicals in Food, Drugs and Cosmetics, published by The Association of Food and Drug Officials of The United States. The specific method employed used nine inductive patchings, not the ten cited in the reference, under occlusive patch conditions. Samples were prepared for evaluation by diluting the highly pure hexylresorcinol in corn oil to a 5% concentration, with dilutions freshly prepared on each application day. 0.2 ml of the diluted test material was dispensed onto occlusive, hypoallergenic patches and the treated patches applied directly to the skin of the infrascapular regions of the back, to the right or left of the midline of each subject: one hundred and eleven subjects were employed. […] If evidence of a reaction was found, the area of edema and/or erythema was then measured and recorded: edema being estimated by an evaluation of the skin with respect to the contour of the unaffected normal skin. […] The challenge or retest sites were monitored and scored 24 and 48 hours after application.

| Compound | ΔITA Degrees ([1]; Week 4) [%] | ΔL Value ([1]; Week 4) [%] | ΔITA Degrees ([1]; Week 8) [%] | ΔL Value ([1]; Week 8) [%] | adverse effects [1] | change in skin color compared with the 2% hydroquinone composition ([1]; 0.5% composition, eight weeks twice a day) | primary irritation (edema or erythema) ([2]; 0.2 ml occlusive patch, nine 24 hour exposures) | sensitization after challenge patch ([2]; challenge after 10-14 day rest, scored 24 and 48 hours) |
| --- | --- | --- | --- | --- | --- | --- | --- | --- |
| Oc1ccc(O)cc1 [Hydroquinone, hydroquinone, reference compound] | 27.66 | 3.24 | 39.38 | 4.27 | No adverse effects | – | – | – |
| CCCCCCc1ccc(O)cc1O [Hexylresorcinol, 4-Hexylresorcinol] | 27.48 | 3.4 | 37.56 | 4.67 | No adverse effects | comparable, statistically significant | NON-PRIMARY IRRITANT | NON-PRIMARY SENSITIZER |
